Series [1] has as its target T1, human monocarboxylate transporter 6 (hMCT6) (Homo sapiens, UniProt O15375).
T1 construct: gene SLC16A5
T1 sequence (O15375 1-505): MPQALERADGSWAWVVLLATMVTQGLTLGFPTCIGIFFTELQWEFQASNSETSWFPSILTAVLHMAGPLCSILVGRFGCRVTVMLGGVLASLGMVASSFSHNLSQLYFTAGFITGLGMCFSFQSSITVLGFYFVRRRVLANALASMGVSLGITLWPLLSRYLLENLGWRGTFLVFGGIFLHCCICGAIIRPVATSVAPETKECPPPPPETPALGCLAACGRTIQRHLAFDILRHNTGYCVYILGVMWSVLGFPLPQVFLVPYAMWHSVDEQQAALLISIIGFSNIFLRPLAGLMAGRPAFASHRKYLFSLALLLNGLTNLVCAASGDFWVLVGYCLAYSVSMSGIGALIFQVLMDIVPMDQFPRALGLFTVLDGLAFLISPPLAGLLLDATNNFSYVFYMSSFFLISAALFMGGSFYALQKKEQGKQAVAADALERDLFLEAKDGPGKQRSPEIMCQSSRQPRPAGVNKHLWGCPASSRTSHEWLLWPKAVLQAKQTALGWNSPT
In words: cis-inhibition of [3H]PGF2α uptake in oocytes. The class given is cell-based.

Series [2] has as its target T2, murine monocarboxylate transporter 6 (mMct6) (Mus musculus, UniProt G5E8K6).
T2 construct: gene Slc16a5; full-length, untagged, cRNA in Xenopus laevis oocytes
T2 sequence (G5E8K6 1-468): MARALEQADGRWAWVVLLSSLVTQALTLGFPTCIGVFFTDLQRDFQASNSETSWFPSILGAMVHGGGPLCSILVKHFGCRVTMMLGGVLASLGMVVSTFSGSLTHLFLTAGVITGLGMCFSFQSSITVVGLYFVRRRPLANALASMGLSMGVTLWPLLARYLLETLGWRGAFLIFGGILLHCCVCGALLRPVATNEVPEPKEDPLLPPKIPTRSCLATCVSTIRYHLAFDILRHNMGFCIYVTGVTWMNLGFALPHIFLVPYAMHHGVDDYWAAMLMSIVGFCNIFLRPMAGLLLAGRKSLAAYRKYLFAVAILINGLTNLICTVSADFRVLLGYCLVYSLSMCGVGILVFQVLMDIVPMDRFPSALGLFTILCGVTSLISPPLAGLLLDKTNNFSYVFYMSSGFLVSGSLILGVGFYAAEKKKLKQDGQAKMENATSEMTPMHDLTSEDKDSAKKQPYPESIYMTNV
The series is described as follows: cis-inhibition of [3H]PGF2α uptake in oocytes, […] ([…] inhibition). The format is cell-based.

In series [3] the target is T1, human monocarboxylate transporter 6 (hMCT6). In words: cis-inhibition of [3H]PGF2α uptake in oocytes at […]. Conditions: read-out: % inhibition at 10 μM (range over the PGs). The format is cell-based.
In series [4] the target is T2, murine monocarboxylate transporter 6 (mMct6). In words: cis-inhibition of [3H]PGF2α uptake in oocytes, […] ([…] inhibition). The format is cell-based. The source holds these as a separate data set.
Substrate in series [5]: CCCCC[C@H](O)/C=C/[C@@H]1[C@@H](C/C=C\CCCC(=O)O)[C@@H](O)C[C@H]1O
In words: cells, lysate or membranes. The class given is cell-based, Homo sapiens. Conditions: pH 7.4.

Substrate in series [6]: CCCCC[C@H](O)/C=C/[C@@H]1[C@@H](C/C=C\CCCC(=O)O)[C@@H](O)C[C@H]1O
In words: cells, lysate or membranes. The format is cell-based, Mus musculus. The following applies: pH 7.4.

Usually inhibition stands for the relative decrease from the control value, in per cent. Usually Km stands for the concentration of substrate that gives half-maximal velocity.

As to `CCCN(CCC)S(=O)(=O)c1ccc(C(=O)O)cc1` [probenecid], the “cis-inhibition of [3H]PGF2α uptake in oocytes” value in series [1] is “Bumetanide and probenecid also inhibited human MCT6-mediated PGF2α uptake”. In addition, the inhibition at 500 µM in series [2] is about 94%. In the case of `CCCCC[C@H](O)/C=C/[C@H]1C(=O)C[C@H](O)[C@@H]1C/C=C\CCCC(=O)O` [prostaglandin D2], the inhibition at 10 µM in series [3] lay in the range of 51 to 74%. On to `CCCCC[C@H](O)/C=C/[C@@H]1[C@@H](CC(=O)CCCCC(=O)O)[C@@H](O)C[C@H]1O` [6-keto prostaglandin F1α], for which the inhibition at 10 µM in series [3] was in the range of 51 to 74%.

Turning to `CCCCNc1cc(C(=O)O)cc(S(N)(=O)=O)c1Oc1ccccc1` [bumetanide], in series [1], the “cis-inhibition of [3H]PGF2α uptake in oocytes” value is “Bumetanide and probenecid also inhibited human MCT6-mediated PGF2α uptake”. Moreover, the inhibition at 10 µM in series [4] was about 28%. Regarding `CCCCC[C@H](O)/C=C/[C@H]1[C@H](O)CC(=O)[C@@H]1C/C=C\CCCC(=O)O` [prostaglandin E2], the inhibition at 10 µM in series [3] was 51 to 74%.

B1: human monocarboxylate transporter 6 (hMCT6) (Homo sapiens) (protein)
chain: MPQALERADGSWAWVVLLATMVTQGLTLGFPTCIGIFFTELQWEFQASNSETSWFPSILTAVLHMAGPLCSILVGRFGCRVTVMLGGVLASLGMVASSFSHNLSQLYFTAGFITGLGMCFSFQSSITVLGFYFVRRRVLANALASMGVSLGITLWPLLSRYLLENLGWRGTFLVFGGIFLHCCICGAIIRPVATSVAPETKECPPPPPETPALGCLAACGRTIQRHLAFDILRHNTGYCVYILGVMWSVLGFPLPQVFLVPYAMWHSVDEQQAALLISIIGFSNIFLRPLAGLMAGRPAFASHRKYLFSLALLLNGLTNLVCAASGDFWVLVGYCLAYSVSMSGIGALIFQVLMDIVPMDQFPRALGLFTVLDGLAFLISPPLAGLLLDATNNFSYVFYMSSFFLISAALFMGGSFYALQKKEQGKQAVAADALERDLFLEAKDGPGKQRSPEIMCQSSRQPRPAGVNKHLWGCPASSRTSHEWLLWPKAVLQAKQTALGWNSPT
notes: pGH19-hMCT6 cRNA in Xenopus laevis oocytes
For the molecule B1, in series [5], the Km was determined as 246 µM.

B2: murine monocarboxylate transporter 6 (mMct6) (Mus musculus) (protein)
chain: MARALEQADGRWAWVVLLSSLVTQALTLGFPTCIGVFFTDLQRDFQASNSETSWFPSILGAMVHGGGPLCSILVKHFGCRVTMMLGGVLASLGMVVSTFSGSLTHLFLTAGVITGLGMCFSFQSSITVVGLYFVRRRPLANALASMGLSMGVTLWPLLARYLLETLGWRGAFLIFGGILLHCCVCGALLRPVATNEVPEPKEDPLLPPKIPTRSCLATCVSTIRYHLAFDILRHNMGFCIYVTGVTWMNLGFALPHIFLVPYAMHHGVDDYWAAMLMSIVGFCNIFLRPMAGLLLAGRKSLAAYRKYLFAVAILINGLTNLICTVSADFRVLLGYCLVYSLSMCGVGILVFQVLMDIVPMDRFPSALGLFTILCGVTSLISPPLAGLLLDKTNNFSYVFYMSSGFLVSGSLILGVGFYAAEKKKLKQDGQAKMENATSEMTPMHDLTSEDKDSAKKQPYPESIYMTNV
notes: full-length, untagged, cRNA (NM_001080934.1) in Xenopus laevis oocytes
Take B2: the Km in series [6] came to 40.1 µM.

Source of the values: PMC7150767, “Monocarboxylate Transporter 6-Mediated Interactions with Prostaglandin F2α: In Vitro and In Vivo Evidence Utilizing a Knockout Mouse Model” (Pharmaceutics, 2020).
